From PMC7828111, “In Search for Multi-Target Ligands as Potential Agents for Diabetes Mellitus and Its Complications—A Structure-Activity Relationship Study on Inhibitors of Aldose Reductase and Protein Tyrosine Phosphatase 1B” (Molecules, 2021)
Where two headings read alike, the source gives them in different places.

Columns and labels:
human recombinant AR [1] = biological target: T1, human recombinant AR (Homo sapiens, UniProt P15121); set-up: method as in PMID 30342956; conditions: reversible inhibitors; cited from earlier work
T1 construct: made in house; host or cells: E. coli BL21(DE3)pLysS

human recombinant PTP1B [2] = biological target: T2, human recombinant PTP1B (Homo sapiens, UniProt P18031); set-up: method as in PMID 30342956; conditions: reversible inhibitors; cited from earlier work
T2 sequence (P18031 1-435): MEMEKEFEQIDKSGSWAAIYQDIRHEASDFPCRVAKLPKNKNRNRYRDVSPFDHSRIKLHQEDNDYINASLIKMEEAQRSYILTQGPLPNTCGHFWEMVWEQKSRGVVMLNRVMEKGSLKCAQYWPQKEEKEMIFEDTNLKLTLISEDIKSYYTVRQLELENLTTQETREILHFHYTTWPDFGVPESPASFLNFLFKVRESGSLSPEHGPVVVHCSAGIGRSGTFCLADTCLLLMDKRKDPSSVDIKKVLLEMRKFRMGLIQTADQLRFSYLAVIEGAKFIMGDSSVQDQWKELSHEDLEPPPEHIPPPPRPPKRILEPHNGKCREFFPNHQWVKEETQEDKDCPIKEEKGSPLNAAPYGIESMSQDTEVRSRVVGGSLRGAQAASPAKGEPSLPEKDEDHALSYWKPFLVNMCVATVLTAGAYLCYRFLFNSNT

human recombinant PTP1B [3] = biological target: T2, human recombinant PTP1B; assay: Kinetic analysis of PTP1B inhibition (Lineweaver-Burk plot); format: biochemical; conditions: pNPP as substrate
Procedure: Kinetic analyses were carried out to dissect action mechanism of compound 4e and 4f. Briefly, the main kinetic parameters, Km and Vmax, were calculated measuring the initial hydrolysis rate of PTP1B in the presence of increasing pNPP concentration (seven different concentrations in the 0.5–25 mM range). All assays were carried out in duplicate. Data obtained were fitted using the Michaelis-Menten equation. To evaluate the action mechanism of inhibitors, we studied the dependence of Km and Vmax from inhibitors concentration, using three different inhibitor concentrations, at least. Data obtained were then analysed by double reciprocal plot (Lineweaver-Burk plot).

human recombinant AR [4] = biological target: T1, human recombinant AR; assay: Reversibility of AR inhibition (dialysis); format: biochemical
Procedure: In order to evaluate the reversibility of the inhibitory action, 8 mU of purified AR were assayed in the presence of 5 μM of compounds 4a, 4e and 4f. In these conditions less than 15% of the enzyme activity was measured in the presence of 2 mM L-idose as substrate. The mixture was then extensively dialysed on Amicon ultrafiltration membrane (cut off 10 KDa) against 10 mM sodium phosphate buffer, pH 7.0. After dialysis, the enzyme activity was again measured as above and compared to that of a mixture in the absence of inhibitor and treated in the same conditions.

human recombinant PTP1B [5] = biological target: T2, human recombinant PTP1B; assay: Reversibility assay (dilution test) with PTP1B; format: biochemical; conditions: saturating inhibitor, 60 min 37 °C, diluted 400 folds
Procedure: An aliquot of the enzyme was incubated for 60 min at 37 °C in the presence of saturating amount of PTP1B inhibitor. After this time, an aliquot of the enzyme was withdrawn and diluted 400 folds in the assay buffer containing 2.5 mM of pNPP. After 15 min, the reaction was stopped by adding 1 mL of KOH 0.2 M. The amount of pNP released was calculating measuring the absorbance at 400 nm of solutions using a spectrophotometer. Data obtained were normalized respect to control tests, which was carried out diluting the enzyme with DMSO, the solvent used to dissolve all compounds. Data reported in the figure represent the mean value +/− S.E.M. (n = 3).

human recombinant PTP1B [6] = biological target: T2, human recombinant PTP1B; assay: Inhibition of human recombinant PTP1B, p-nitrophenyl phosphate as substrate; format: biochemical; conditions: human recombinant PTP1B, pNPP as substrate; mean ± S.E.M
Procedure: PTP1B activity was determined as follow. […] After an appropriate interval time, the reaction was stopped diluting assay solution with 2 mL of KOH 0.1 M. The amount of p-nitrophenol released was determined measuring the absorbance of the solution at 400 nm using a spectrophotometer and a 1-cm optical pathlength (εmM of p-nitrophenol is 18). The IC50 value was determined measuring the pNPP hydrolysis rate in the presence of increasing inhibitor concentration. For each inhibitor, 15–16 different concentrations were used. All tests were carried out in triplicate and data obtained were normalized respect to control sample.

human recombinant AR [7] = biological target: T1, human recombinant AR; assay: Kinetic analysis of AR inhibition (Lineweaver-Burk and secondary plots); format: biochemical
Procedure: The kinetic analysis of compounds 4a, 4e and 4f was performed by measuring reaction rates with different L-idose concentrations s (S) in the absence and in the presence of different inhibitors concentrations. Data were analyzed by Linewever-Burk plots.

human recombinant AR [8] = biological target: T1, human recombinant AR; assay: Inhibition of human recombinant AR, L-idose as substrate (NADPH oxidation at 340 nm); format: biochemical; conditions: human recombinant AR, 2 mM L-idose as substrate; mean ± S.E.M
Procedure: The human recombinant AR was expressed in BL21(DE3)pLysS E. coli cells and purified to electrophoretic homogeneity as previously described. The purified enzyme (specific activity 5.0 U/mg) was stored at −80 °C in 10 mM sodium phosphate buffer pH 7.0 containing 2 mM dithiothreitol and 30% (w/v) glycerol. AR activity was determined at 37 °C as previously described evaluating the decrease in absorbance at 340 nm linked to NADPH oxidation. […] One unit of enzyme activity is the amount that catalyzes the conversion of 1 μmol of substrate/min in the above assay conditions.
All compounds tested as aldose reductase inhibitors were dissolved in DMSO and added to the assay mixture containing 8 mU of purified AR. The reaction was started by addition of the substrate. The DMSO concentration in all the assays was kept constant at 0.5% (v/v) in order to avoid effects on AR activity.
The IC50 values were determined by nonlinear regression analysis using Prism GraphPad 6.0 fitting experimental data to the following equation:(1) vi/v0= Max−Min/1+( I/IC50)^slope +Min
In the equation, vi/v0, represents the ratio between the activity measured in the presence of the inhibitor and the activity measured in the absence of inhibitor; Max and Min represent the expected maximal and minimal value of the activity and were fixed at 1 and zero, respectively. Slope, which describes the steepness of curve in the transition region, was fixed at −1. For each compound, at least five different concentrations of inhibitor in the triplicate assay were analyzed.

| SMILES | Mechanism of AR inhibition (human recombinant AR [1]) | Mechanism of PTP1B inhibition (human recombinant PTP1B [2]) | Mechanism of PTP1B inhibition (human recombinant PTP1B [3]) | PTP1B K′i (apparent dissociation constant, EIS complex) (human recombinant PTP1B [3]) [µM] | Ki (human recombinant PTP1B [3]; read-out: PTP1B Ki (apparent dissociation constant)) [nM] | AR enzyme activity recovered after removal of the inhibitor upon extensive dialysis (human recombinant AR [4]; 5 μM compound before dialysis) | AR enzyme activity measured in the presence of compound (human recombinant AR [4]; 5 μM compound, 2 mM L-idose, before dialysis) | Reversibility of PTP1B inhibition (human recombinant PTP1B [5]) | melting point [°C] | IC50 (human recombinant PTP1B [6]) [nM] | AR Ki relative to K′i (human recombinant AR [7]; Ki higher than K′i) | AR K′i (apparent dissociation constant, EIS complex) (human recombinant AR [7]; L-idose as substrate) [µM] | Mechanism of AR inhibition (human recombinant AR [7]; L-idose as substrate) | Ki (human recombinant AR [7]; L-idose as substrate, read-out: AR Ki (apparent dissociation constant)) [nM] | IC50 (human recombinant AR [8]) [nM] |
| --- | --- | --- | --- | --- | --- | --- | --- | --- | --- | --- | --- | --- | --- | --- | --- |
| O=C(O)CN1C(=O)S/C(=C\c2cccc(OCCc3ccccc3)c2)C1=O [1e] | uncompetitive | non-competitive |  |  |  |  |  |  |  |  |  |  |  |  |  |
| O=C(O)CN1C(=O)/C(=C/c2cccc(OCCc3ccccc3)c2)SC1=S [2e, (4-oxo-5-{[3-(2-phenylethoxy)pheny]lmethylidene}-2-thioxothiazolidin-3-yl)acetic acid] | uncompetitive | non-competitive |  |  |  |  |  |  |  |  |  |  |  |  |  |
| O=C(O)CCN1C(=O)/C(=C/c2cccc(OCCc3ccccc3)c2)SC1=S [4e, 3-[(5Z)-4-Oxo-{5-[3-(2-phenylethoxy)phenyl]methylidene}-2-thioxothiazolidin-3-yl]propanoic acid] |  |  | competitive inhibitor | >12 | 2200 ± 300 | more than 90% | less than 15% | reversible inhibitors | 136 to 138 | 55500 ± 800 | at least ten-fold higher | 0.66 ± 0.30 | uncompetitive inhibitors | > 8000 | 2300 ± 100 |
